Experimental data from publication PMC4685510, “A Cell Biologist’s Field Guide to Aurora Kinase Inhibitors” (Frontiers in Oncology, 2015).

Key:
Experiment in all cases: biochemical
Format in all cases: biochemical
[1] = molecular target: T1, 363 human kinases (including Aurora A/B/C) (Homo sapiens, UniProt O15264); details: P38d/MAPK13; for remaining activity at 0.1 µM: 100 nM; for remaining activity at 0.1 µM / remaining activity at 0.5 µM: read-out: % Enzyme Activity (relative to DMSO controls)
T1 sequence (O15264 1-365): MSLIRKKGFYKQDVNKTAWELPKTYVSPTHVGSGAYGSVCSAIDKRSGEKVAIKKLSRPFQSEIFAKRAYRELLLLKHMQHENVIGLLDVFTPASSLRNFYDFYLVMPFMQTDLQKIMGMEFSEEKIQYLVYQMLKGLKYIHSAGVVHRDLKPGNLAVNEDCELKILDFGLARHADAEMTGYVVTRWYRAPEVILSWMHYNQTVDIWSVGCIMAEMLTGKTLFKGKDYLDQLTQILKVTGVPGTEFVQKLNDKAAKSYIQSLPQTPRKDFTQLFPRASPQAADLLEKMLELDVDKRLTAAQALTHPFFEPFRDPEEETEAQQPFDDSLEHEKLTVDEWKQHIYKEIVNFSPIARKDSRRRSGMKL
Text: (§1) However, the Aurora A/B selectivity ratios derived from our in vitro and in vivo data can be compared to prioritize inhibitors.

[2] = molecular target: 363 human kinases (including Aurora A/B/C) (Homo sapiens, UniProt P00533); details: EGFR, [ATP] 1 µM; for remaining activity at 0.1 µM: 100 nM; for remaining activity at 0.1 µM / remaining activity at 0.5 µM: read-out: % Enzyme Activity (relative to DMSO controls)
Text: as §1

[3] = molecular target: 363 human kinases (including Aurora A/B/C) (Homo sapiens, UniProt P07947); details: YES/YES1; for remaining activity at 0.1 µM: 100 nM; for remaining activity at 0.1 µM / remaining activity at 0.5 µM: read-out: % Enzyme Activity (relative to DMSO controls)
Text: as §1

[4] = molecular target: 363 human kinases (including Aurora A/B/C) (Homo sapiens, UniProt P22455); details: FGFR4, [ATP] 100 µM; for remaining activity at 0.1 µM: 100 nM; for remaining activity at 0.1 µM / remaining activity at 0.5 µM: read-out: % Enzyme Activity (relative to DMSO controls)
Text: as §1

[5] = molecular target: 363 human kinases (including Aurora A/B/C) (Homo sapiens, UniProt P29597); details: TYK2; for remaining activity at 0.1 µM: 100 nM; for remaining activity at 0.1 µM / remaining activity at 0.5 µM: read-out: % Enzyme Activity (relative to DMSO controls)
Text: as §1

[6] = molecular target: 363 human kinases (including Aurora A/B/C) (Homo sapiens, UniProt P35968); details: KDR/VEGFR2; for remaining activity at 0.1 µM: 100 nM; for remaining activity at 0.1 µM / remaining activity at 0.5 µM: read-out: % Enzyme Activity (relative to DMSO controls)
Text: as §1

[7] = molecular target: T2, 363 human kinases (including Aurora A/B/C) (Homo sapiens, UniProt P46734); details: MEK3; for remaining activity at 0.1 µM: 100 nM; for remaining activity at 0.1 µM / remaining activity at 0.5 µM: read-out: % Enzyme Activity (relative to DMSO controls)
T2 sequence (P46734 1-347): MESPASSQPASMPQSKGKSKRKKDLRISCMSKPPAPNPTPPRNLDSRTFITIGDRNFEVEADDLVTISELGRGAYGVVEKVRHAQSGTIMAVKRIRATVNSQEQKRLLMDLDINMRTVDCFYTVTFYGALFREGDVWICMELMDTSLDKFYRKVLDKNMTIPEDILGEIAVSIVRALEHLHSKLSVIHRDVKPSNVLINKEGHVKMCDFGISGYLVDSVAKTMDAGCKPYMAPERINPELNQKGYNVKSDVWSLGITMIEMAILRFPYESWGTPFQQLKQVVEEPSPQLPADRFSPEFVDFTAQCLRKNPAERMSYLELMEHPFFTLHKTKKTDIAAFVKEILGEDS
Text: as §1

[8] = molecular target: T3, 363 human kinases (including Aurora A/B/C) (Homo sapiens, UniProt P54760); details: EPHB4, [ATP] 20 µM; for remaining activity at 0.1 µM: 100 nM; for remaining activity at 0.1 µM / remaining activity at 0.5 µM: read-out: % Enzyme Activity (relative to DMSO controls)
T3 sequence (P54760 16-987): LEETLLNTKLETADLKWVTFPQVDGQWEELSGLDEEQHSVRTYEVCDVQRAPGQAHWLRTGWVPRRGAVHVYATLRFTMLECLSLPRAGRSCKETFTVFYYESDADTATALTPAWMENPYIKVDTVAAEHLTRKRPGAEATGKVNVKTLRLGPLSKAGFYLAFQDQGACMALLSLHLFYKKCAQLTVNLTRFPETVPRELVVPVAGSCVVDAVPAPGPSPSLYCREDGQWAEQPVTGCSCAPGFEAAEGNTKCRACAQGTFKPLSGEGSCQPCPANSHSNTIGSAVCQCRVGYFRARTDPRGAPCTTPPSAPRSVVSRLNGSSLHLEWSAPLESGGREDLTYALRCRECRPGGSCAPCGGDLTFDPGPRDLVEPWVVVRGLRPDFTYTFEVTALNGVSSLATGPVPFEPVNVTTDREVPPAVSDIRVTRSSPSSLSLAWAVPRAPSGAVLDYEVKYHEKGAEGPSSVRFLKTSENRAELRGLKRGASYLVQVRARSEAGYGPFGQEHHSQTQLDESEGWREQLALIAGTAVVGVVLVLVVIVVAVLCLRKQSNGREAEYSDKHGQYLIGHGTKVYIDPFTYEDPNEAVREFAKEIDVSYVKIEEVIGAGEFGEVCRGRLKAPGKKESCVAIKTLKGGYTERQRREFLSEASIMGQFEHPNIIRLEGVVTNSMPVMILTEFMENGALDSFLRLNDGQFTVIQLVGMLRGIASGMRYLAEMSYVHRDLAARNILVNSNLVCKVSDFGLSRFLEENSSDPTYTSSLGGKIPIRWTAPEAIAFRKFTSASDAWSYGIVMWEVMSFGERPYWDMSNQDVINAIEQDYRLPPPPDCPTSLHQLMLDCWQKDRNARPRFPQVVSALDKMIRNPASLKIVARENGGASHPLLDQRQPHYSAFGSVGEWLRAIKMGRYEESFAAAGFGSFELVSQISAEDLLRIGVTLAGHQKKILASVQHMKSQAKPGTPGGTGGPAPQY
Text: as §1

[9] = molecular target: 363 human kinases (including Aurora A/B/C) (Homo sapiens, UniProt Q14012); details: CAMK1a, [ATP] 20 µM; for remaining activity at 0.1 µM: 100 nM; for remaining activity at 0.1 µM / remaining activity at 0.5 µM: read-out: % Enzyme Activity (relative to DMSO controls)
Text: as §1

[10] = molecular target: 363 human kinases (including Aurora A/B/C) (Homo sapiens, UniProt Q86UE8); details: TLK2; for remaining activity at 0.1 µM: 100 nM; for remaining activity at 0.1 µM / remaining activity at 0.5 µM: read-out: % Enzyme Activity (relative to DMSO controls)
Text: as §1

[11] = molecular target: 363 human kinases (including Aurora A/B/C) (Homo sapiens, UniProt Q86UX6); details: STK32C/YANK3; for remaining activity at 0.1 µM: 100 nM; for remaining activity at 0.1 µM / remaining activity at 0.5 µM: read-out: % Enzyme Activity (relative to DMSO controls)
Text: as §1

[12] = molecular target: 363 human kinases (including Aurora A/B/C) (Homo sapiens, UniProt Q9BXA6); details: SSTK/TSSK6; for remaining activity at 0.1 µM: 100 nM; for remaining activity at 0.1 µM / remaining activity at 0.5 µM: read-out: % Enzyme Activity (relative to DMSO controls)
363 human kinases (including Aurora A/B/C) (Homo sapiens, UniProt Q9BXA6), sequence (Q9BXA6 whole entry): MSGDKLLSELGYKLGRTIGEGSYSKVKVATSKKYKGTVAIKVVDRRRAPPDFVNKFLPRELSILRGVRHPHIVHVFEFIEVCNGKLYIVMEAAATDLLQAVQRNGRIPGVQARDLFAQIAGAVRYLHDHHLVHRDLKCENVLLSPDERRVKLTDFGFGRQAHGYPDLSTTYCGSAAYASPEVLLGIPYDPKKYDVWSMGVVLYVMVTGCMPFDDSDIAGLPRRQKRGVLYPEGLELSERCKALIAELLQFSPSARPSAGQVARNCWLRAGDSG
Text: as §1

363 human kinases (including Aurora A/B/C) (Homo sapiens, UniProt P22455), sequence (P22455 22-802): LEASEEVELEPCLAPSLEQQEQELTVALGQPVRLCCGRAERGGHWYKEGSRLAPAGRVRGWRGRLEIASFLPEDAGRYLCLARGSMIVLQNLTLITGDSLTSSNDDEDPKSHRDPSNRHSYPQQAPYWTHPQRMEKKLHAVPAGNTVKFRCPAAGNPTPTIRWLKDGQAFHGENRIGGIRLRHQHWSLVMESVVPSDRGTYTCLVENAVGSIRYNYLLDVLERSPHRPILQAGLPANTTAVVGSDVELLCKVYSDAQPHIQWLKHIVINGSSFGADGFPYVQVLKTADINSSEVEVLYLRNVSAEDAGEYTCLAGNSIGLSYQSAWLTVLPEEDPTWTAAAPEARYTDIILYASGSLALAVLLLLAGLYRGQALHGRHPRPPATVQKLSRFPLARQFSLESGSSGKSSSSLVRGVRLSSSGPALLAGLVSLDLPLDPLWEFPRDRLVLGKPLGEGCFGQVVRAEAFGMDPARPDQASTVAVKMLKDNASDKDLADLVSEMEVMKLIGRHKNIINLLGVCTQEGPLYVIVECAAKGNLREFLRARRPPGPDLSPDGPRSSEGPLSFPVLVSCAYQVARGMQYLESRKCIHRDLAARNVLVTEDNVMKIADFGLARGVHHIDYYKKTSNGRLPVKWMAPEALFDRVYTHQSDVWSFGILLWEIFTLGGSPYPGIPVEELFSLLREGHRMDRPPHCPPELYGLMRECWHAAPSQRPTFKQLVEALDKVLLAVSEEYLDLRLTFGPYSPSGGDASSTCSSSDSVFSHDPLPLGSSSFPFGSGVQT
363 human kinases (including Aurora A/B/C) (Homo sapiens, UniProt Q14012), sequence (Q14012 whole entry): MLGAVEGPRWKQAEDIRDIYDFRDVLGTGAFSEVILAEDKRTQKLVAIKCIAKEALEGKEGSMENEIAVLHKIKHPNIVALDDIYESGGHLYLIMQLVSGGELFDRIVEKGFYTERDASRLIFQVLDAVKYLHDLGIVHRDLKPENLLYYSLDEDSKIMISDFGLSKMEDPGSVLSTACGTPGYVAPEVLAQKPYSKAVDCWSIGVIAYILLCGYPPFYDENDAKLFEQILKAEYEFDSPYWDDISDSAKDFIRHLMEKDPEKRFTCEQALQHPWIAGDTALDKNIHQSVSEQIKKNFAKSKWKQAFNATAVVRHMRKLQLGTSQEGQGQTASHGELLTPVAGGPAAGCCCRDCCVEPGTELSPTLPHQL
363 human kinases (including Aurora A/B/C) (Homo sapiens, UniProt Q86UX6), sequence (Q86UX6 whole entry): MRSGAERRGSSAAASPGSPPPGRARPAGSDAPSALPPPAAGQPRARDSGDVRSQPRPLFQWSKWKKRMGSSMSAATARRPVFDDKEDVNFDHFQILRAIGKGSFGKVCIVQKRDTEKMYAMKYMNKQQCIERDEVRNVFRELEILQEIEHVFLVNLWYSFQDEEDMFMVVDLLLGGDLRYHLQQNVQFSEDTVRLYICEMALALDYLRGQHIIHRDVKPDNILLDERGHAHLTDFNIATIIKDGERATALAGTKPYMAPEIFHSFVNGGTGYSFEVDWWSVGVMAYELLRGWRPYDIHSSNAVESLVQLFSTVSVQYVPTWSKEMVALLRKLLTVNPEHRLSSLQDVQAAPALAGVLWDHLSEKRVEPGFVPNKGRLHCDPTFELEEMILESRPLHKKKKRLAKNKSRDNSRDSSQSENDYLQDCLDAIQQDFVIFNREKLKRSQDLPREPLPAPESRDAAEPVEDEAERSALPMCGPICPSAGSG
363 human kinases (including Aurora A/B/C) (Homo sapiens, UniProt P29597), sequence (P29597 whole entry): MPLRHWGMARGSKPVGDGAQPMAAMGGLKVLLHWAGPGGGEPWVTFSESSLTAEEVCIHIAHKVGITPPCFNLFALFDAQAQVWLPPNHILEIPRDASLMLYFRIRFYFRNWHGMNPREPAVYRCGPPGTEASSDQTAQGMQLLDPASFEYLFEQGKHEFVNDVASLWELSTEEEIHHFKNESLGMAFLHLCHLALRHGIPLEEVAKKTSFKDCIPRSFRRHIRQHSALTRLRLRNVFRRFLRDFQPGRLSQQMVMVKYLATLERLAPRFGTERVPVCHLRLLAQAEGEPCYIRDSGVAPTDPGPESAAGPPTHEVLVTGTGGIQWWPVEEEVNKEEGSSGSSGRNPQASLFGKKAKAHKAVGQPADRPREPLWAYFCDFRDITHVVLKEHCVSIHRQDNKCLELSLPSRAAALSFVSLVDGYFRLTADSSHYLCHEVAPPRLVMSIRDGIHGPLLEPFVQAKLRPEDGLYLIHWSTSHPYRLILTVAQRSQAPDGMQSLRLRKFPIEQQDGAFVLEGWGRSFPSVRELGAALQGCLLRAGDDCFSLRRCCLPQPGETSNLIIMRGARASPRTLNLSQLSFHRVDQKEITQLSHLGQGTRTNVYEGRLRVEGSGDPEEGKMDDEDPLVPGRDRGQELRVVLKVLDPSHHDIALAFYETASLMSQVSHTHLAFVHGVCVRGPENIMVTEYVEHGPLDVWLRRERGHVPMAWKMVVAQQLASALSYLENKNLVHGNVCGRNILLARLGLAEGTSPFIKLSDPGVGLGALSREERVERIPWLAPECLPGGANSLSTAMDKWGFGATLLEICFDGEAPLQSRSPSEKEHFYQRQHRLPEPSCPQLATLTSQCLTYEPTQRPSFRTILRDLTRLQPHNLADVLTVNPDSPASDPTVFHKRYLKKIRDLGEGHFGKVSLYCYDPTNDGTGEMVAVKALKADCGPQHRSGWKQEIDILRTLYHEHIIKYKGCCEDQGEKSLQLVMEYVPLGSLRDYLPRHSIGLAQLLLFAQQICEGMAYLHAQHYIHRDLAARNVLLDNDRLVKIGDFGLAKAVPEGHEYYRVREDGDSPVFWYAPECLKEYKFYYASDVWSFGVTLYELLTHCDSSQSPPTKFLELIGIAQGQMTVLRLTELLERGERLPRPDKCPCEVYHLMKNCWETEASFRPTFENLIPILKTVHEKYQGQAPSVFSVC
363 human kinases (including Aurora A/B/C) (Homo sapiens, UniProt P07947), sequence (P07947 whole entry): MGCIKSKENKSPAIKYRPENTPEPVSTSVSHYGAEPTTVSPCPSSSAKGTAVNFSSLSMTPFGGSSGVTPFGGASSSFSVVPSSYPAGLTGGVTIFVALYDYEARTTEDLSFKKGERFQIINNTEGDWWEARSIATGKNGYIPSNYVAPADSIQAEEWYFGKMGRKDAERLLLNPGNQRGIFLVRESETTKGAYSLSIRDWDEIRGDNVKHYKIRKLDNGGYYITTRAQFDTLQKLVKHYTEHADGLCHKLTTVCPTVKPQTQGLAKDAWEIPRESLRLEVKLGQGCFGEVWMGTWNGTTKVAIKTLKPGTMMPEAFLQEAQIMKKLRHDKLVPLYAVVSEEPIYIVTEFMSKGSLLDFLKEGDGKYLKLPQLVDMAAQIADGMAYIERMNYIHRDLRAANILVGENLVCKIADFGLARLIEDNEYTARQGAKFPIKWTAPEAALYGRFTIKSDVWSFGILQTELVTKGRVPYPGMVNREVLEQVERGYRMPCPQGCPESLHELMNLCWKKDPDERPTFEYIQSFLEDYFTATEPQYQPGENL
363 human kinases (including Aurora A/B/C) (Homo sapiens, UniProt P00533), sequence (P00533 25-1210): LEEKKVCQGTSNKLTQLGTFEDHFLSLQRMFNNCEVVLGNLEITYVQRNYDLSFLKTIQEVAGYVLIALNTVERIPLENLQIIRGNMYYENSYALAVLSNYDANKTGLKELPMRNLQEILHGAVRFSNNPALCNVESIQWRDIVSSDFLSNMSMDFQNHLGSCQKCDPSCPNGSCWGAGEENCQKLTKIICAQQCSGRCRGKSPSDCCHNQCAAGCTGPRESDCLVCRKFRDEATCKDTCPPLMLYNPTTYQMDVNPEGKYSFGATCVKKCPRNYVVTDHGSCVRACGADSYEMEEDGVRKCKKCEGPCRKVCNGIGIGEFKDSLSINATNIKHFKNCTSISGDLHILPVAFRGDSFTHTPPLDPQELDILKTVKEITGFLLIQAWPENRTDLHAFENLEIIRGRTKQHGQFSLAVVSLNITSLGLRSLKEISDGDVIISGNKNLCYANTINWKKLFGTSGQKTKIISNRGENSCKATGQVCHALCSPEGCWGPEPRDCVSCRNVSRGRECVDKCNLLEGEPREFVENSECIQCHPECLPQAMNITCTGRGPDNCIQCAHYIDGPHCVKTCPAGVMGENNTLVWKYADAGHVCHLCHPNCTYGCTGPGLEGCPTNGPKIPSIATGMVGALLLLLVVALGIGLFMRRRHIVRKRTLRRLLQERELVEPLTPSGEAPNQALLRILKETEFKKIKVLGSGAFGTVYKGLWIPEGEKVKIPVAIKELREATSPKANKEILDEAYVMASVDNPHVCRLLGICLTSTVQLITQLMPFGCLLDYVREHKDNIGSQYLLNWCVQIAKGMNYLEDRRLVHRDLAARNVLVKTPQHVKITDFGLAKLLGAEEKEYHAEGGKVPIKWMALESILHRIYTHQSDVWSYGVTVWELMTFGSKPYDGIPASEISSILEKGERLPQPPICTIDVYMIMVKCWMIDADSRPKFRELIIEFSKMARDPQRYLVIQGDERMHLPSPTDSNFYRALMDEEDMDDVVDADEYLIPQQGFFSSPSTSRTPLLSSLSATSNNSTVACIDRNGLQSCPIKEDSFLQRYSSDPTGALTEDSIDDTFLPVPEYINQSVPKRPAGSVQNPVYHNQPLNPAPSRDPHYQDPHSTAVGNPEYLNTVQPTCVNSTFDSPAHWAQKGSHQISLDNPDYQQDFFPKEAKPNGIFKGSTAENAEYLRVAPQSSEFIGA

Compound | remaining activity at 0.1 µM [1] | remaining activity at 0.1 µM [2] | remaining activity at 0.1 µM [3] | remaining activity at 0.1 µM [4] | remaining activity at 0.1 µM [5] | remaining activity at 0.1 µM [6] | remaining activity at 0.1 µM [7] | remaining activity at 0.1 µM [8] | remaining activity at 0.1 µM [9] | remaining activity at 0.1 µM [10] | remaining activity at 0.1 µM [11] | remaining activity at 0.1 µM [12] | remaining activity at 0.5 µM ([1]; 500 nM) | remaining activity at 0.5 µM ([2]; 500 nM) | remaining activity at 0.5 µM ([3]; 500 nM) | remaining activity at 0.5 µM ([4]; 500 nM) | remaining activity at 0.5 µM ([5]; 500 nM) | remaining activity at 0.5 µM ([6]; 500 nM) | remaining activity at 0.5 µM ([7]; 500 nM) | remaining activity at 0.5 µM ([8]; 500 nM) | other results
CCn1cc(-c2ccnc3[nH]c(-c4cccc(CN(C)C)c4)cc23)c(-c2ccc(NC(=O)N(C)C)cc2)n1 [GSK1070916] | 91.7% | 54.6% | 69.3% | 125% | 87% | 87.5% | 105% | 87.9% | 98.6% | 100% | 79.9% | 100% |  |  |  |  |  |  |  |  | 
O=C(c1cccc(Cl)c1F)N1CCN(Cc2cccc(Nc3nccs3)n2)CC1 [MK-8745] |  |  |  |  |  |  |  |  |  |  |  |  | 100% | 99.1% | 34.6% | 118% | 67.8% | 96.7% | 75.7% | 47.7% | % Enzyme Activity (relative to DMSO controls) ([1]; 500 nM): 96.82%; % Enzyme Activity (relative to DMSO controls) ([2]; 500 nM): 97.09%; % Enzyme Activity (relative to DMSO controls) ([3]; 500 nM): 33.63%; % Enzyme Activity (relative to DMSO controls) ([4]; 500 nM): 106.52%; % Enzyme Activity (relative to DMSO controls) ([5]; 500 nM): 67.55%; % Enzyme Activity (relative to DMSO controls) ([6]; 500 nM): 96.11%; % Enzyme Activity (relative to DMSO controls) ([7]; 500 nM): 72.05%; % Enzyme Activity (relative to DMSO controls) ([8]; 500 nM): 47.01%; % Enzyme Activity (relative to DMSO controls) ([9]; 500 nM): 94.06%; remaining activity at 0.5 µM ([9]; 500 nM): 95.5%; % Enzyme Activity (relative to DMSO controls) ([10]; 500 nM): 99.16%; remaining activity at 0.5 µM ([10]; 500 nM): 100%; % Enzyme Activity (relative to DMSO controls) ([11]; 500 nM): 79.77%; remaining activity at 0.5 µM ([11]; 500 nM): 81.5%; % Enzyme Activity (relative to DMSO controls) ([12]; 500 nM): 91.73%; remaining activity at 0.5 µM ([12]; 500 nM): 94.5%
O=C(O)[C@]1(Cc2cccc(Nc3nccs3)n2)CC[C@@H](Oc2cccc(Cl)c2F)CC1 [MK-5108] | 98.5% | 67.3% | 31.3% | 91.7% | 52.3% | 36.8% | 89.7% | 29.5% | 102% | 111% | 124% | 95.1% | 82.6% | 33.9% | 9.25% | 126% | 17% | 13.1% | 99.7% | 5.58% | remaining activity at 0.5 µM ([9]; 500 nM): 97.1%; remaining activity at 0.5 µM ([10]; 500 nM): 98.3%; remaining activity at 0.5 µM ([11]; 500 nM): 96.6%; remaining activity at 0.5 µM ([12]; 500 nM): 104%
